Measurements reported in publication PMC6844378, “Structure activity relationship studies on Amb639752: toward the identification of a common pharmacophoric structure for DGKα inhibitors” (Journal of Enzyme Inhibition and Medicinal Chemistry, 2019).
pIC50: −log10 of the molar value.

Key:
DGKα = DGKα (Homo sapiens, UniProt P23743); test: DGK assay on OST-DGKα enriched MDCK homogenates; type: biochemical; parameters: expressed in transfected cells; host or cells: MDCK cells (vector-infected, doxycycline-induced), crude homogenate; conditions: for remaining activity at 100 µM: percentage of residual DGKα activity compared to DMSO control, OST-DGKα overexpressing cell lysates, saturating DAG and ATP, read-out: Residue activity at 100 µM; for pIC50: residual OST-DGKα activity at 0.1, 1.0, 10.0 and 100.0 µM
DGKα, sequence (P23743 whole entry): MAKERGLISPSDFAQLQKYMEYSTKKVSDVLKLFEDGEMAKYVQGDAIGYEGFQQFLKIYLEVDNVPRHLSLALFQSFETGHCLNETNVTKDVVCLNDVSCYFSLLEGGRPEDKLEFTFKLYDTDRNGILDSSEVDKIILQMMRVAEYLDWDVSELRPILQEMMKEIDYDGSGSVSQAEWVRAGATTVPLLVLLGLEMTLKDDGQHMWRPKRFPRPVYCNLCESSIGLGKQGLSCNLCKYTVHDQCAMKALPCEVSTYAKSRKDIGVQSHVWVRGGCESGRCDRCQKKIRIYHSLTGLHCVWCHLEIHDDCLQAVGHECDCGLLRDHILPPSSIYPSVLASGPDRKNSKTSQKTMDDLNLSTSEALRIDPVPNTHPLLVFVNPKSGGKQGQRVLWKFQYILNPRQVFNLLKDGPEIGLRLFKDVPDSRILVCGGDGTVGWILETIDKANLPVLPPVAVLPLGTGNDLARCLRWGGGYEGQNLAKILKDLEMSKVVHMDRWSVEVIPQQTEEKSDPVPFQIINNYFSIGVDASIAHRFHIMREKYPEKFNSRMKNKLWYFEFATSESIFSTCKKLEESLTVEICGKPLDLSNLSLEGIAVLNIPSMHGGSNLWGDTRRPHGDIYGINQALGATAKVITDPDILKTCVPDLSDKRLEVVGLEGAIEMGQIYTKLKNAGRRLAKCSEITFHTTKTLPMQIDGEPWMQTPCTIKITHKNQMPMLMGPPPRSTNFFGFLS
Experimental: Madin-Darby canine kidney (MDCK) cells stably expressing One Strep Tag DGKα (OST-DGKα) were prepared by infecting MDCK cells with a vector expressing an inducible OST tagged DGKα constructs. MDCK cells infected with empty vector were used as controls. MDCK cells were cultured in MEM (minimal essential medium) with 5% FBS (foetal bovine serum) and 1% antibiotic–antimycotic solution. Routinely, cells were splitted every 3–4 days with trypsin–EDTA 0.25% in standard 100 mm dishes.
Large cultures of MDCK cells for enzyme preparation were done by plating 5 × 10^6 cells in 245 mm^2 dishes. Once they reached nearly 70% confluence, cells were treated with doxycycline (1 µg/mL, two days). […] Cells were collected with a rubber scraper, homogenised by passing them through a 29 G-needle syringe 20 times and stored in aliquots at –80 °C. Presence of OST-DGKα was confirmed by western blotting and enzyme assay, transduced DGKα has an activity >100 folds the endogenous DGK.
Essentionally, the same procedure was followed as reported previously in Velnati et al.[9] In brief, DGK activity was assayed by measuring initial velocities (5 min at 27 °C) in presence of saturating substrate concentrations. Reaction conditions: 0.9 µg/µL 1,2-dioleoyl-sn-glycerol, 5 mM ATP, 0.01 µCi/µL [γ^32P]-ATP, 1 mM sodium orthovanadate, 10 mM MgCl2, 1.2 mM EGTA in 7.5 mM Hepes pH 8[12]. Reaction mixture is assembled mixing enzyme (24.5 µL of homogenate), 100× inhibitor or DMSO (0.5 µL), 5× ATP solution (10 µL of 25 mM ATP, 0.05 µCi/µL [γ^32P]-ATP (Perkin-Elmer, Milan, Italy), 5 mM sodium orthovanadate, 50 mM MgCl2), and 3.3× DAG solution (15 µL of 3 µg/µL 1,2-dioleoyl-sn-glycerol resuspended by sonication in 4 mM EGTA in 25 mM Hepes pH 8). The reaction was stopped after 5 min by adding 200 µL of freshly prepared 1 M HCl and lipid was extracted by adding 200 µL of CH3OH:CHCl3 1:1 solution and vortexing for 1 min. The two phases were separated by centrifugation (12,000 RCF for 2 min). Twenty-five microlitres of the lower organic phase was spotted in small drops on silica TLC plates. TLC was run 10 cm and dried before radioactive signals were detected by GS-250 molecular imager and was quantified by quantity one (Bio-Rad, Hercules, CA) software assuring the absence of saturated spots.
Percentage residual activity was calculated as follows: (OST-DGKα homogenate with inhibitor – vector homogenate)/(OST-DGKα homogenate with DMSO – vector homogenate)×100.
Data for the screen on OST-DGKα homogenates are the mean of duplicates. The compounds showing inhibitory activity in this assay were tested >4 times and the mean ± SEM is reported.
To calculate IC50 values of active inhibitors, the inhibitor activity was measured at least three times at 0.1, 1.0, 10.0, and 100.0 µM concentration. Data were analysed using [inhibitor] vs. normalised response parameters with least square [ordinary] curve fitting method in GraphPad PRISM 8.0 software (GraphPad Software, La Jolla, CA) mentioning 95% confidence interval and IC50 values always greater than 0.0. […] In all the experiments, the data were normalised with the controls.
Each inhibitor was tested in duplicate at least once, and DGKα activity was expressed as percentage of residual DGKα activity compared to DMSO control in the same assay. Assay uses OST-DGKα overexpressing cell lysates in presence of saturating exogenous DAG and ATP. We considered R59022 (commercially available) and the lead compound Amb63975230 as our reference molecules.
To measure the inhibitor potency, we determined the IC50 values for the compounds that resulted active when tested at 100 µM by measuring the residual OST-DGKα activity over a dose range of inhibitor concentrations (0.1 µM, 1.0 µM, 10.0 µM, and 100.0 µM).

SAP-deficient T cells = test: RICD assay in SAP silenced T cells; type: cell-based, human; conditions: 10 µM, 30 min pre-treatment; OKT3 10 ng/mL, 24 h
Experimental: PBL were isolated from healthy anonymous human donors by Ficoll-Paque PLUS (GE Healthcare, Chicago, IL) density gradient centrifugation, washed, and resuspended at 2 × 10^6 cell/mL in RPMI-GlutaMAX containing 10% heat inactivated FCS, 2 mM glutamine, and 100 U/mL of penicillin and streptomycin. T cells were activated with 1 µg/mL anti-CD3 (UCHT1) and anti-CD28 (clone CD28.2) antibodies. After three days, activated T cells were washed and cultured in medium additionated of 100 IU/mL rhIL-2 (Peprotech, Rocky Hill, NJ) at 1.2 × 10^6 cells/mL for ≥7 days by changing media for every 2–3 days.
Activated human PBLs were transfected with 200 pmol of siRNA oligonucleotides specific for the target protein (Stealth Select siRNA; Life Technologies, Carlsbad, CA) or a non-specific control oligo (Life Technologies, Carlsbad, CA). Transient transfections were performed using Amaxa nucleofector kits for human T cells (Lonza, Basel, Switzerland) and the Amaxa Nucleofector II or 4D systems (programmes T-20 or EI-115). Cells were cultured in IL-2 (100 IU/mL) for four days to allow target gene knockdown. Knockdown efficiency was periodically evaluated by Western blotting.
To test restimulation induced cell death, activated T cells (10^5 cells/well) were plated in triplicate in 96-well round-bottom plate and treated with anti-CD3 (clone OKT3) (10 ng/mL) in RPMI-GlutaMAX supplemented with 100 IU/mL rhIL-2 for 24 h. In these assays, inhibitors (10 µM) were added 30 min before the restimulation with OKT3. 24 h after treatment, cells were stained with 20 ng/mL propidium iodide and collected for a constant time of 30 s per sample on Attune Nxt Flow Cytometer (Thermo Fisher Scientific, Waltham, MA). Cell death is expressed as % cell loss and calculated as: % cell loss=(1−(number of viable cells in sample/number of viable cells in control)×100)
Results were expressed as mean ± standard error of the mean (SEM). We always compared controls and SAP silenced lymphocytes from the same donors as there is a large individual variability in RICD sensitivity.
To evaluate inhibitor efficacy in physiological context, we modelled XLP-1 by silencing SAP in primary peripheral blood T lymphocytes (PBLs) and restimulating them with anti-CD3 antibody (OKT3 10 ng/mL, 24 h). We pre-treated the cells with the indicated inhibitors for 30 min at a concentration of 10 µM[8].
Figure 9. DGKα inhibitors partially restores apoptosis in SAP deficient lymphocytes. […] After 4 days, the cells were restimulated with CD3 agonist OKT3 (10 ng/mL) in presence of respective inhibitor. Vehicle (DMSO) was used as control. Twenty-four hours later, the % of cell loss was evaluated by PI staining. Data are the mean ± SEM of nine independent experiments performed in triplicate.

| Structure (SMILES) | remaining activity at 100 µM (DGKα) | melting point | other results |
| --- | --- | --- | --- |
| Cc1[nH]c2ccccc2c1C(=O)C(C)N1CCN(C(=O)c2ccccc2)CC1 (centres unmarked) [Amb37496] | 114% |  |  |
| CC(C(=O)c1c[nH]c2ccccc12)N1CCN(C(=O)c2ccco2)CC1 (centres unmarked) [Amb626577] | 127% |  |  |
| COc1ccc2c(C(=O)CN3CCN(C(=O)c4ccco4)CC3)c(C)n(C)c2c1 [Amb726054] | 126% |  |  |
| Cc1c(C(=O)CN2CCN(C(=O)c3ccco3)CC2)c2ccccc2n1C [Amb731111] | 130% |  |  |
| Cc1ccc2[nH]cc(C(=O)CN3CCN(C(=O)c4ccco4)CC3)c2c1 [Amb758592] | 150% |  |  |
| Cc1[nH]c2c(C)ccc(C)c2c1C(=O)CN1CCN(C(=O)c2ccco2)CC1 [Amb22018852] | 160% |  |  |
| O=c1c2ccccc2[nH]c(=S)n1CCC1CCC(=C(c2ccc(F)cc2)c2ccc(F)cc2)CC1 (centres unmarked) [Compound 1] |  |  | inhibitory activity on the enzyme (DGKα) (DGKα): totally devoid of inhibitory activity |
| O=C(CN1CCN(C(=O)c2ccco2)CC1)c1c[nH]c2ccccc12 [Compound 2] | 135% |  |  |
| COc1ccc(C(=O)N2CCN(CC(=O)c3c(C)[nH]c4cc(C)ccc34)CC2)cc1 [Compound 12, 1-(2,6-Dimethyl-1H-indol-3-yl)-2-(4-(4-methoxybenzoyl)piperazin-1-yl)ethan-1-one] | 6% | 219.9 to 220.8 °C | pIC50 (DGKα): 5.44 |
| Cc1ccc2c(C(=O)CN3CCN(C(=O)c4cccs4)CC3)c(C)[nH]c2c1 [Compound 14, 1-(2,6-Dimethyl-1H-indol-3-yl)-2-(4-(thiophene-2-carbonyl)piperazin-1-yl)ethan-1-one] | 6% |  | effect on RICD in control siRNA-transfected cells (SAP-deficient T cells): slightly reducing; pIC50 (DGKα): 5.52 |
| Cc1ccc2c(C(=O)CN3CCN(C(=O)c4cccnc4)CC3)c(C)[nH]c2c1 [Compound 15, 1-(2,6-Dimethyl-1H-indol-3-yl)-2-(4-nicotinoylpiperazin-1-yl)ethan-1-one] | 89% | 216.2 to 216.8 °C |  |
| Cc1ccc2c(C(=O)CN3CCN(C(=O)c4ccc(F)c(F)c4)CC3)c(C)[nH]c2c1 [Compound 18, 2-(4-(3,4-Difluorobenzoyl)piperazin-1-yl)-1-(2,6-dimethyl-1H-indol-3-yl)ethan-1-one] | 47% | 233.8 to 235 °C |  |
| Cc1ccc2c(C(=O)CN3CCN(C(=O)C4CCCC4)CC3)c(C)[nH]c2c1 [Compound 21, 2-(4-(Cyclopentanecarbonyl)piperazin-1-yl)-1-(2,6-dimethyl-1H-indol-3-yl)ethan-1-one] | 39% |  |  |
| CCCCCCC(=O)N1CCN(CC(=O)c2c(C)[nH]c3cc(C)ccc23)CC1 [Compound 22, 1-(4-(2-(2,6-Dimethyl-1H-indol-3-yl)-2-oxoethyl)piperazin-1-yl)heptan-1-one] | 48% |  |  |

Continued, in another order:

| remaining activity at 100 µM (DGKα) | melting point | Structure (SMILES) | other results |
| --- | --- | --- | --- |
| 135% |  | Cn1c(-c2ccccc2)c(C(=O)CN2CCN(C(=O)c3ccco3)CC2)c2ccccc21 [Amb18718] |  |
| 196% |  | O=C(c1c[nH]c2ccccc12)C(c1ccccc1)N1CCN(C(=O)c2ccco2)CC1 (centres unmarked) [Amb94966] |  |
| 81% |  | O=C(CN1CCN(C(=O)c2ccco2)CC1)c1c(-c2ccccc2)[nH]c2ccccc12 [Amb98433] |  |
| 101% |  | COc1ccc2[nH]cc(C(=O)CN3CCN(C(=O)c4ccco4)CC3)c2c1 [Amb629700] |  |
| 115% |  | COc1ccc2[nH]c(C)c(C(=O)CN3CCN(C(=O)c4ccco4)CC3)c2c1 [Amb687392] |  |
| 67% |  | Cc1ccc2c(C(=O)C(C)N3CCN(C(=O)c4ccco4)CC3)c(C)[nH]c2c1 (centres unmarked) [Amb758897] |  |
| 88% |  | Cc1[nH]c2ccccc2c1C(=O)C(c1ccccc1)N1CCN(C(=O)c2ccco2)CC1 (centres unmarked) [Amb1926062] |  |
| 5% | 213.8 to 214.3 °C | Cc1ccc2c(C(=O)CN3CCN(C(=O)c4ccccc4)CC3)c(C)[nH]c2c1 [Compound 8, 2-(4-Benzoylpiperazin-1-yl)-1-(2,6-dimethyl-1H-indol-3-yl)ethan-1-one] | pIC50 (DGKα): 5.49 |
| 14% | 243.9 to 244.8 °C | Cc1ccc2c(C(=O)CN3CCN(C(=O)c4ccc(C#N)cc4)CC3)c(C)[nH]c2c1 [Compound 13, 4-(4-(2-(2,6-Dimethyl-1H-indol-3-yl)-2-oxoethyl)piperazine-1-carbonyl)benzonitrile] | pIC50 (DGKα): 5.16 |
| 27% | 200.5 to 201.6 °C | Cc1ccc2c(C(=O)CN3CCN(C(=O)c4ccccc4C)CC3)c(C)[nH]c2c1 [Compound 16, 1-(2,6-Dimethyl-1H-indol-3-yl)-2-(4-(2-methylbenzoyl)piperazin-1-yl)ethan-1-one] | pIC50 (DGKα): 4.48 |
| 41% | 209.8 to 210.4 °C | COc1cccc(C(=O)N2CCN(CC(=O)c3c(C)[nH]c4cc(C)ccc34)CC2)c1 [Compound 17, 1-(2,6-Dimethyl-1H-indol-3-yl)-2-(4-(3-methoxybenzoyl)piperazin-1-yl)ethan-1-one] |  |
| 26% | 222.3 to 223.5 °C | Cc1ccc2c(C(=O)CN3CCN(C(=O)c4cccc(Cl)c4)CC3)c(C)[nH]c2c1 [Compound 19, 2-(4-(3-Chlorobenzoyl)piperazin-1-yl)-1-(2,6-dimethyl-1H-indol-3-yl)ethan-1-one] | pIC50 (DGKα): 4.30 |
